Data published in patent US6890920B2, “Quaternary ammonium compounds” (Pharmacia & Upjohn Company, priority 1992, dated 2005).
Like-named read-outs stand apart in the source and are kept apart here.

What was measured:
muscarinic receptor M3 = target: T1, muscarinic receptor M3 (Homo sapiens, UniProt P20309); assay: Muscarinic receptor subtype M3 binding assay, radioligand displacement; conditions: [3]H-methylscopolamine displacement, membranes from recombinant mammalian cell lines; read-out: Ki values, receptor subtype M3
T1 construct: expressed in transfected cells
T1 sequence (P20309 whole entry): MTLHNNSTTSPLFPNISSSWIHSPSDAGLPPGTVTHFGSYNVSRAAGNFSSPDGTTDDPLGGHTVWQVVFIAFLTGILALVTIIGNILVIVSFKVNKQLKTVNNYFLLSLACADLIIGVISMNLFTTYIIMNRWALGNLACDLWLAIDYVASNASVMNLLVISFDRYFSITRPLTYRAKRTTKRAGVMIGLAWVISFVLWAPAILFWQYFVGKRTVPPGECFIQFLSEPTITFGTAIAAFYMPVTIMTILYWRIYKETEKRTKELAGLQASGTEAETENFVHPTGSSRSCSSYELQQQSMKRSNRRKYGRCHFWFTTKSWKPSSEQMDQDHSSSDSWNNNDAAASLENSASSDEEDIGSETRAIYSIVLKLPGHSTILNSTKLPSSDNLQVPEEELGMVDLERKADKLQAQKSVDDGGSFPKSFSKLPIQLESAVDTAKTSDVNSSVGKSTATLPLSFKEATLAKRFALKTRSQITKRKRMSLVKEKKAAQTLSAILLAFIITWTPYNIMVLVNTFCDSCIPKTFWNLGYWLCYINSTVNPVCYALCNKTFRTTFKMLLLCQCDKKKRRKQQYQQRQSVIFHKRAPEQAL
Description: (§1) Muscarinic receptor subtype M1-M5 binding assays were carried out. Briefly, [3]H-methylscopolamine was allowed to bind to membranes from various recombinant mammalian cell lines, each with an over-expression of a particular receptor subtype.
(§2) Muscarinic receptor subtype M1-M5 binding assays were performed.

muscarinic receptor M1 = target: T2, muscarinic receptor M1 (Homo sapiens, UniProt P11229); assay: Muscarinic receptor subtype M1 binding assay, radioligand displacement
T2 construct: expressed in transfected cells
T2 sequence (P11229 1-460): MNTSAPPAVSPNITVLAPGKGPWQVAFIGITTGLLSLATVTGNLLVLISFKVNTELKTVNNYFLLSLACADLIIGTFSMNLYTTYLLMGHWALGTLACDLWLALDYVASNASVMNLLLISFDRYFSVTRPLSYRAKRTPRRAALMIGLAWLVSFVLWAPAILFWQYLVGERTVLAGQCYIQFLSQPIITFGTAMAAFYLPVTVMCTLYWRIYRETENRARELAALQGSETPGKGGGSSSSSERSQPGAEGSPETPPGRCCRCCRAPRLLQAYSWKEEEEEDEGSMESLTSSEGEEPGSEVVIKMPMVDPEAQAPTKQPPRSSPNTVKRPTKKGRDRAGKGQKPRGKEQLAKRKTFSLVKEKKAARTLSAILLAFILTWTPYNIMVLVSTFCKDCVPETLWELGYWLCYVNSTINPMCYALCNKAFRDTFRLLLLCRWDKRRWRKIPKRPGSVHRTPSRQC
Description: as §1, §2

muscarinic receptor M4 = target: T3, muscarinic receptor M4 (Homo sapiens, UniProt P08173); assay: Muscarinic receptor subtype M4 binding assay, radioligand displacement; conditions: [3]H-methylscopolamine displacement, membranes from recombinant mammalian cell lines
T3 construct: expressed in transfected cells
T3 sequence (P08173 1-479): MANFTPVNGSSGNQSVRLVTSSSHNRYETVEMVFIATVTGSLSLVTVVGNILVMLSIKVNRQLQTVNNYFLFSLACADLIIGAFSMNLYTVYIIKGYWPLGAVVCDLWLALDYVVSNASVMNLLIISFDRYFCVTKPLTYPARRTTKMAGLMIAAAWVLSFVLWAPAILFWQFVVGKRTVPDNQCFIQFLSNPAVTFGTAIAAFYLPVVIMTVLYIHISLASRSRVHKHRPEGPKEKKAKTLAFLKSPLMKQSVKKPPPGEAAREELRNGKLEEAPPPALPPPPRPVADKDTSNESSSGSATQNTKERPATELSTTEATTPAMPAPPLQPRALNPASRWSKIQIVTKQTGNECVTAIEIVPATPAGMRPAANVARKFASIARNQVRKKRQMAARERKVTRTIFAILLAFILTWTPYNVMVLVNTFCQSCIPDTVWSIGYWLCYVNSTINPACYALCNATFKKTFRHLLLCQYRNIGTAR
Description: as §1, §2

muscarinic receptor M5 = target: T4, muscarinic receptor M5 (Homo sapiens, UniProt P08912); assay: Muscarinic receptor subtype M5 binding assay, radioligand displacement; conditions: [3]H-methylscopolamine displacement, membranes from recombinant mammalian cell lines; read-out: Ki values, receptor subtype M5
T4 construct: expressed in transfected cells
T4 sequence (P08912 1-532): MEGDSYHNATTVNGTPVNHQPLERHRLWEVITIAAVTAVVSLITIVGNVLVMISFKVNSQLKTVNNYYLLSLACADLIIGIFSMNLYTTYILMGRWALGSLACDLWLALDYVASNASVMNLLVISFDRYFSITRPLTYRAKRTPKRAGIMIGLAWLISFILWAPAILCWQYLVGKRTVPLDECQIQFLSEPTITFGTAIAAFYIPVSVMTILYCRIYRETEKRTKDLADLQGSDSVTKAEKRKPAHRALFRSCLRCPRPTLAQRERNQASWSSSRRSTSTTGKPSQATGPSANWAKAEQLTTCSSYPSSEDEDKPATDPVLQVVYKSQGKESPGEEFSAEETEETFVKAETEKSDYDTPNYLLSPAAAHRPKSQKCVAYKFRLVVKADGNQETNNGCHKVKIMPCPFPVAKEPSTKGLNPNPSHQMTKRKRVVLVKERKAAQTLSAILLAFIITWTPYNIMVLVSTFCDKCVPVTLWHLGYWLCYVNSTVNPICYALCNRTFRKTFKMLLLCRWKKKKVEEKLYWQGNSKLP
Description: as §1, §2

[1] = tested on: methacholine-induced bronchoconstriction in Balb/c mice; assay: Bronchodilatory effect of inhaled compounds, Example VIII (% inhibition); format: in vivo; conditions: inhalation of 1 mg/mL FBE; for % inhibition of bronchoconstriction after 10 min: 10 min after dosing; for % inhibition of bronchoconstriction after 36 h: 36 h after dosing
Description: Bronchoconstriction was induced in BALB/c mice by administration of methacholine.

muscarinic receptor M2 = target: T5, muscarinic receptor M2 (Homo sapiens, UniProt P08172); assay: Muscarinic receptor subtype M2 binding assay, radioligand displacement; conditions: [3]H-methylscopolamine displacement, membranes from recombinant mammalian cell lines
T5 construct: expressed in transfected cells
T5 sequence (P08172 1-466): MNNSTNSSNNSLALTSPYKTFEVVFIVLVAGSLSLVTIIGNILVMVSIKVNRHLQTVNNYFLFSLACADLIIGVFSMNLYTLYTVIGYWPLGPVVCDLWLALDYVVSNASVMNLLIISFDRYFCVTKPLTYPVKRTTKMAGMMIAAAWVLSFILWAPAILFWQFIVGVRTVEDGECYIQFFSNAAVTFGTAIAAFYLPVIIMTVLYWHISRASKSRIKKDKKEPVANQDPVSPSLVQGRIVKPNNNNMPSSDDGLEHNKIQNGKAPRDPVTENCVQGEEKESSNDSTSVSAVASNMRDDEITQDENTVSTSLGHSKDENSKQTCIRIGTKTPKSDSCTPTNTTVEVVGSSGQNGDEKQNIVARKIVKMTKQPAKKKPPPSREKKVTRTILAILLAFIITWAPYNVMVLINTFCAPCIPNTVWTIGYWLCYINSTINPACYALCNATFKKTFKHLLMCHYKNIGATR
Description: as §1, §2

[2] = Pharmacokinetics of inhaled tolterodine, plasma levels; format: in vivo, Balb/c mice; conditions: FIG. 7
Description: Blood samples were collected at 2.5 minutes, 15 minutes, 30 minutes, 1 hour or 2 hours after aerosol drug treatment. Blood samples were prepared as in example VI. Samples were analyzed using a PE SCIEX API 3000 mass spectrometer. Chromatographically, the analyte and the internal standard were resolved on a Zorbax ACE Phenyl column using a gradient elution. The limit of quantitation was 100 pg/mL.

[3] = [3]H-methylscopolamine displacement, membranes from recombinant mammalian cell lines

Ki (muscarinic receptor M3) [nM] | Ki (muscarinic receptor M1; [3]) [nM] | Ki (muscarinic receptor M4) [nM] | Ki (muscarinic receptor M5) [nM] | Ki (muscarinic receptor M2) [nM] | melting point | SMILES | % inhibition of bronchoconstriction after 10 min [1] [%] | % inhibition of bronchoconstriction after 24 h ([1]; 24 h after dosing) [%] | % inhibition of bronchoconstriction after 48 h ([1]; 48 h after dosing) [%] | % inhibition of bronchoconstriction after 36 h [1] [%] | Ki (muscarinic receptor M1) [nM] | Plasma levels ([2]; inhalation of nebulized solution at 0.1 mg/ml, limit of quantitation 100 pg/mL) | absorption into the circulation ([2]; inhalation of nebulized solutions at 0.1, 0.5 or 1.0 mg/ml)
0.92 | 0.86 | 1.07 | 0.68 | 1.08 |  | CC(C)[N+](C)(CC[C@H](c1ccccc1)c1cc(CO)ccc1O)C(C)C.[I-] [Example 8, (3R)-3-[2-Hydroxy-5-(hydroxymethyl)phenyl]-N,N-diisopropyl-N-methyl-3-phenylpropan-1-aminium iodide] | 82 | 60 | 15 |  |  |  | 
 |  |  |  |  | 175 °C (dec.) | CCCC(=O)Oc1ccc(C)cc1[C@H](CC[N+](C)(C(C)C)C(C)C)c1ccccc1.[I-] [Example 21, (3R)-3-[2-(Butyryloxy)-5-methylphenyl]-N,N-diisopropyl-N-methyl-3-phenylpropan-1-aminium iodide] |  |  |  |  |  |  | 
3.3 | 1.2 | 4.2 | 1.6 | 2.2 |  | Cc1ccc(O)c(C(CC[N+]2(C)CCCC2)c2ccccc2)c1.[I-] (centres unmarked) [Example 31, 1-[3-(2-Hydroxy-5-Methylphenyl)-3-phenylpropyl]-1-methylpyrrolidinium iodide] | 100 |  |  | 0 |  |  | 
1.4 | 1.5 | 1.4 | 0.48 | 0.33 |  | CC(C)N(CC[C@H](c1ccccc1)c1cc(CO)ccc1O)C(C)C [Hydroxytolterodine, 2-[(1R)-3-(diisopropylamino)-1-phenylpropyl]-4-(hydroxymethyl)phenol, reference compound] |  |  |  |  |  |  | 
 |  |  |  |  | 211 °C (dec.) | COc1ccc(C)cc1[C@H](CC[N+](C)(C(C)C)C(C)C)c1ccccc1.[I-] [Example 20, (3R)-N,N-diisopropyl-3-(2-methoxy-5-methylphenyl)-N-methyl-3-phenylpropan-1-aminium iodide] |  |  |  |  |  |  | 
3.2 | 1.1 | 3.6 | 0.9 | 1.7 |  | Cc1ccc(O)c(C(CC[N+]2(C)CCCCC2)c2ccccc2)c1.[I-] (centres unmarked) [Example 33, 1-[3-(2-Hydroxy-5-methylphenyl)-3-phenylpropyl]-1-methylpiperidinium iodide] | 100 |  |  | 0 |  |  | 
3.1 | 1.1 | 3.8 | 1.2 | 1.7 |  | CC[N+]1(CCC(c2ccccc2)c2cc(C)ccc2O)CCCC1.[I-] (centres unmarked) [Example 32, 1-Ethyl-1-(3-(2-hydroxy-5-methylphenyl)-3-phenylpropyl]pyrrolidinium iodide] | 100 |  |  | 17 |  |  | 
4.7 | 1 | 2.9 | 1.8 | 1 |  | Cc1ccc(O)c(C(CC[N+]2(C)CCCCCC2)c2ccccc2)c1.[I-] (centres unmarked) [Example 34, 1-[3-(2-Hydroxy-5-methylphenyl)-3-phenylpropyl]-1-methylazepanium iodide] | 100 |  |  | 0 |  |  | 

SMILES | Ki (muscarinic receptor M3) [nM] | Ki (muscarinic receptor M1; [3]) [nM] | Ki (muscarinic receptor M4) [nM] | Ki (muscarinic receptor M5) [nM] | Ki (muscarinic receptor M2) [nM] | melting point | % inhibition of bronchoconstriction after 10 min [1] [%] | % inhibition of bronchoconstriction after 24 h ([1]; 24 h after dosing) [%] | % inhibition of bronchoconstriction after 48 h ([1]; 48 h after dosing) [%] | % inhibition of bronchoconstriction after 36 h [1] [%] | Ki (muscarinic receptor M1) [nM] | Plasma levels ([2]; inhalation of nebulized solution at 0.1 mg/ml, limit of quantitation 100 pg/mL) | absorption into the circulation ([2]; inhalation of nebulized solutions at 0.1, 0.5 or 1.0 mg/ml)
Cc1ccc(O)c([C@H](CC[N+](C)(C(C)C)C(C)C)c2ccccc2)c1.[Br-] [Example 3] | 0.43 | 0.3 | 0.72 | 0.26 | 0.52 | 189 to 191 °C (dec.) | 100 |  |  | 93 |  |  | 
Cc1ccc(O)c([C@H](CCN(C(C)C)C(C)C)c2ccccc2)c1 [Tolterodine, 2-[(1R)-3-(diisopropylamino)-1-phenylpropyl]-4-methylphenol, reference compound] |  |  | 1.5 | 0.55 |  |  |  |  |  |  | 0.87 | at or below detection limits | rapidly absorbed into the circulation
